The target in assay [1] is T1, pgk1 (Mus musculus, UniProt P09411).
T1 construct: His; made in house; host or cells: E. coli
T1 sequence (P09411 1-417): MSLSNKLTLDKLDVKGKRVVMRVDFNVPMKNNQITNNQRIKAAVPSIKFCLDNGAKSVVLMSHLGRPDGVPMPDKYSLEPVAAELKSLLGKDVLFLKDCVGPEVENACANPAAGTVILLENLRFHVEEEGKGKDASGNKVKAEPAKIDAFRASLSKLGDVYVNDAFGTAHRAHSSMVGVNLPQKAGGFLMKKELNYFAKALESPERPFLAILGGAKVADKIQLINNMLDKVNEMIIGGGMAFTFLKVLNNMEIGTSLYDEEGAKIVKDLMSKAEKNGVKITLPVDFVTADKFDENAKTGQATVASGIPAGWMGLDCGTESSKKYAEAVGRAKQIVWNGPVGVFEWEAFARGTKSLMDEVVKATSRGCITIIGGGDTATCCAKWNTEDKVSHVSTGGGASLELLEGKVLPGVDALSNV
Put plainly: Activity assay of pgk1 (GAPDH-coupled, absorbance at 340 nm). The format is biochemical. The method, then:
The recombinant mouse pgk1 protein (His-pgk1) was expressed in the E. Coli. The protein was purified by a Nickel column. The proteins were diluted to 0.15 unit /mL. Then, different concentrations of terazosin were added to determine the pgk1 activity.
According to the components of Colorimetric GAPDH Assay Kit (ScienCells), the reaction solution was prepared with solutions of GAPDH, HEPES, and MgSO4. A predetermined concentration of the compound of Formula I was added to the reaction solution (30 mM Hepes, 3 mM ATP, 0.22 mM NADH, 10 mM MgSO4, 10 mM 3-PGA, 3-4 U/ml GAPDH, pH 7.5). Absorbance was measured at 25 °C with a spectroscope (340 nm). Relative activity of pgk1 was calculated based on the changes of absorbance value within 1-10 minutes. The activity has a positive correlation with the changes of absorbance value. The absorbance of the same compound at 340 nm was subtracted in the test group.

Assay [2] is described as follows: Effect on serum glucose in mice. The format is in vivo. To be noted: Mus musculus, ip; 0.4 mg/kg i.p. once, measured 18 hours later; t-test P<0.01 for terazosin; read-out: reduction of the serum glucose level. As to the method:
Mice were injected terazosin (0.4 mg/kg i.p.) once. The serum glucose level of the mice was measured 18 hours later. […] By the same method, exemplary compounds Co.1, Co.3, Co.7, Co.9, Co.13, Co.16, Co.19, Co.24, Co.27 and Co.32 as described in the present invention were all shown to be effective to reduce the serum glucose level by 20% to 50%.

The subject of assay [3] is cerebral thrombosis. Put plainly: Mouse model of cerebral thrombosis, infarct volume. The format is in vivo. To be noted: 0.4 mg/kg i.p.; 6 mice per condition; t-test P<0.05. As to the method:
In a mouse model of cerebral thrombosis, the mouse brains were stained after death from thrombosis. […] The statistical analysis was performed based on % infarct volume = white area/total area, 6 mice were tested for each condition. t-test, P<0.05.

For assay [4], the system named is sepsis models (LPS; Cecal Ligation and Puncture). Put plainly: Effects against sepsis (LPS and CLP models), 7-day survival. It counts as in vivo, BALB/C mice. To be noted: i.p. once a day for 3 days at 0.4 mg/kg; 7-day period; P < 0.05 compared to negative controls. As to the method:
After 1.5 hours, compounds were injected (i.p.) at a predetermined concentration. Mouse survival was examined every 12 hours for 7 days. Statistical significance of the difference in the survival rates was analyzed.
Another model is Cecal Ligation and Puncture (CLP) model of sepsis. Mice were anesthetized. A 1.5-2.0 cm long abdominal midline incision was made and the cecum was exposed. After ligation 5 mm from the cecal tip, the cecum was punctured once with a 22-gauge needle, and some stool was squeezed out. Then the cecum was put back into the abdomen and the abdomen was closed by running suture. After 1.5 hours, compounds were injected (i.p.) at a predetermined concentration. Mouse survival was examined every 12 hours for 7 days. Statistical significance of the difference in the survival rates was analyzed.
These compounds were individually injected (i.p.) once a day for 3 days at 0.4 mg/kg.

The subject of assay [5] is E. Coli O111:B4. As to the kind of experiment: Oxford Cup test of antibiotic activity. The format is cell-based. The following applies: after 24 hrs; terazosin 0.2µg, 2µg, 200µg, 2mg; ampicillin 2mg. As to the method: The antibiotic activity of terazosin was measured by Oxford Cup test. Oxford Cups containing different concentrations of terazosin were placed in the petri dish wherein E. Coli O111:B4 was cultured on LB medium. The effects of terazosin and ampicillin on the growth of E. Coli were examined after 24 hrs.

Setting [6] is: read-out: Activity* (the times of pgk1 activity induced by 0.02µg/ml of the tested compound).

Consider nine molecules from EP2924037A1, “QUINAZOLINE DERIVATE AND USE THEREOF AS APOPTOSIS INHIBITOR” (Linx Pharmaceutical Co., Ltd., priority 2012, dated 2013).

Like-named read-outs stand apart in the source and are kept apart here.

Regarding `COc1cc2nc(N3CCN(C(=O)C4CCCO4)CC3)nc(NC(=O)C(F)(F)F)c2cc1OC` (centres unmarked) [Co.13], the fold induction at 0.02 µg/mL in assay [1] (setting [6]) turned out to be 1.8. Also, the inhibition in vivo at 0.4 mg/kg in assay [2] lay within 20 to 50%. The “infarct volume (% infarct volume = white area/total area)” value in assay [3] was “effective to reduce the infarct volume”. Besides, the survival against sepsis result in assay [4] is on record as “significantly increased survival against sepsis”.
`COc1cc2c(N)nc(N3CCN(C(=O)C4CCCO4)CC3)nc2cc1F` (centres unmarked) [Co.18]: the fold induction at 0.02 µg/mL in assay [1] (setting [6]) came to 1.3. Also, the survival against sepsis entry in assay [4] is recorded as “significantly increased survival against sepsis”.
As for `COc1cc2nc(N3CCN(C(=O)C4CCCO4)CC3)nc(NO)c2cc1OC` (centres unmarked) [Co.4], the fold induction at 0.02 µg/mL in assay [1] (setting [6]) worked out at 3.4. The “infarct volume (% infarct volume = white area/total area)” value in assay [3] is given as “effective to reduce the infarct volume”. Also, the survival against sepsis entry in assay [4] is “significantly increased survival against sepsis”.
As for `COc1cc2nc(N3CCN(C(=O)C4CCCO4)CC3)nc(NC(C)=O)c2cc1OC` (centres unmarked) [Co.1], the fold induction at 0.02 µg/mL was 2.9 in assay [1] (0.02 µg/ml, read-out: activation of pgk1 represented by fold changes) and 2.9 in assay [1] (setting [6]). Further, the inhibition in vivo at 0.4 mg/kg in assay [2] lay within 20 to 50%. In addition, the “infarct volume (% infarct volume = white area/total area)” value in assay [3] is listed as “effective to reduce the infarct volume”. In assay [4], the survival against sepsis result was “significantly increased survival against sepsis”.
For the molecule `COc1cc2nc(N3CCN(C(=O)C4CCCO4)CC3)nc(NC3CCCCC3)c2cc1OC` (centres unmarked) [Co.9], in assay [1] (setting [6]), the fold induction at 0.02 µg/mL is 1.4. In addition, the inhibition in vivo at 0.4 mg/kg in assay [2] fell in the range of 20 to 50%. In assay [4], the survival against sepsis entry is “significantly increased survival against sepsis”.
As for `COc1c(OC)c(OC)c2c(N)nc(N3CCN(C(=O)C4CCCO4)CC3)nc2c1NC(C)=O` (centres unmarked) [Co.29], the fold induction at 0.02 µg/mL in assay [1] (setting [6]) was determined as 2.6. For the same molecule, the “infarct volume (% infarct volume = white area/total area)” value in assay [3] is on record as “effective to reduce the infarct volume”. Moreover, the survival against sepsis entry in assay [4] is given as “significantly increased survival against sepsis”.
As to `COc1c(OC)c(OC)c2c(N)nc(N3CCN(C(=O)C4CCCO4)CC3)nc2c1F` (centres unmarked) [Co.28], the fold induction at 0.02 µg/mL in assay [1] (setting [6]) came to 1.2. The survival against sepsis entry in assay [4] is “significantly increased survival against sepsis”.
Take `CC1(C)S[C@@H]2[C@H](NC(=O)[C@H](N)c3ccccc3)C(=O)N2[C@H]1C(=O)O` [ampicillin]: the “growth of E. coli (inhibition zones)” value in assay [5] is “shown to inhibit E. coli growth”.
With `Nc1nc(N2CCN(C(=O)C3CCCO3)CC2)nc2cc(N3CCCCC3)c(C(F)(F)F)cc12` (centres unmarked) [Co.19], the fold induction at 0.02 µg/mL in assay [1] (setting [6]) turned out to be 1.4. The inhibition in vivo at 0.4 mg/kg in assay [2] was 20 to 50%. In addition, the “infarct volume (% infarct volume = white area/total area)” value in assay [3] is “effective to reduce the infarct volume”.
